Results reported in patent US10906890B2, “Triazole phenyl compounds as agonists of the APJ receptor” (AMGEN INC., priority 2016, dated 2021).

Biological target: human APJ receptor (Homo sapiens (Human), UniProt P35414)
Assay: [35S]GTPγS binding assay on membranes from CHO cells stably expressing human APJ receptor
Format: biochemical
Conditions: means of several independent experiments, read-out: Activity hAPJ SPA EC50 IP
Experimental: The human APJ receptor was cloned by polymerase chain reaction and the gene encoding the receptor was subcloned in pFLAG-CMV™-3 expression vector (Sigma, Saint Louis, Mo. USA) in-house at Amgen. A GTPγS binding assay was performed on membranes prepared from CHO cells stably expressing human APJ receptor. The optimum experimental conditions for the concentrations of GDP, MgCl2, and NaCl in the assay buffer were initially determined. […] Incubation was at RT for 90 min and the microplate was read using a ViewLux™ ultra HTS Microplate Imager (PerkinElmer, Inc.). All the results presented are means of several independent experiments and analyzed by non-linear regression methods using the commercially available program Prism (GraphPad, San Diego, Calif.) providing the EC50 values detailed in Table 28.

human APJ receptor, sequence (P35414 whole entry): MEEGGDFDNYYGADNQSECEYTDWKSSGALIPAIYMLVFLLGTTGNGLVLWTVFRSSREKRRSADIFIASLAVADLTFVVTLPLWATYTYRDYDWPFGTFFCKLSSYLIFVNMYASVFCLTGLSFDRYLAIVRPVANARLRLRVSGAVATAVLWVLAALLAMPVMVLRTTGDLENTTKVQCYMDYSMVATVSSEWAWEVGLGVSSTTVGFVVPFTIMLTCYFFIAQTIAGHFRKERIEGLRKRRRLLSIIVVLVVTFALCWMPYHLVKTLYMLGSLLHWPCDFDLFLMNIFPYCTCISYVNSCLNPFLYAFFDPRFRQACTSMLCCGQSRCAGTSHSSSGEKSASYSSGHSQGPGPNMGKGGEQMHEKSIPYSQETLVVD

Row | Structure (SMILES) | EC50
1 | Cc1cnc([C@@H](O[Si](C)(C)C(C)(C)C)[C@H](C)S(=O)(=O)Nc2nnc(-c3ccccc3)n2-c2c(F)cccc2F)nc1 [Example 44.0, (1R,2S)-1-((tert-butyl(dimethyl)silyl)oxy)-N-(4-(2,6-difluorophenyl)-5-phenyl-4H-1,2,4-triazol-3-yl)-1-(5-methyl-2-pyrimidinyl)-2-propanesulfonamide] | 150 nM
2 | COc1cccc(OC)c1-n1c(NS(=O)(=O)[C@@H](C)[C@H](C)c2cnc(C)cn2)nnc1-c1ccccc1 [Example 25.0, (2S,3R)-N-(4-(2,6-dimethoxyphenyl)-5-phenyl-4H-1,2,4-triazol-3-yl)-3-(5-methyl-2-pyrazinyl)-2-butanesulfonamide] | 1.3 nM
3 | COc1ncnc(OC)c1-n1c(NS(=O)(=O)[C@@H](C)[C@H](C)c2ncc(C)cn2)nnc1-c1cccc(C#N)c1 [Example 50.0, (2S,3R)-N-(5-(3-cyanophenyl)-4-(4,6-dimethoxy-5-pyrimidinyl)-4H-1,2,4-triazol-3-yl)-3-(5-methyl-2-pyrimidinyl)-2-butanesulfonamide] | 110 nM
4 | CCN(CC)c1ccc(-c2nnc(NS(=O)(=O)[C@@H](C)[C@H](OC)c3ncc(C)cn3)n2-c2c(OC)cccc2OC)cc1 [Example 83.0, (1R,2S)-N-(5-(4-(diethylamino)phenyl)-4-(2,6-dimethoxyphenyl)-4H-1,2,4-triazol-3-yl)-1-methoxy-1-(5-methyl-2-pyrimidinyl)-2-propanesulfonamide] | 89 nM
5 | COc1cccc(OC)c1-n1c(NS(=O)(=O)[C@@H](C)[C@H](OC)c2ncc(C)cn2)nnc1-c1cccc(Br)c1 [Example 81.0, (1R,2S)-N-(5-(3-bromophenyl)-4-(2,6-dimethoxyphenyl)-4H-1,2,4-triazol-3-yl)-1-methoxy-1-(5-methyl-2-pyrimidinyl)-2-propanesulfonamide] | 0.27 nM
6 | COc1cccc(OC)c1-n1c(NS(=O)(=O)[C@H]2C[C@@H](O)CN(c3ncc(F)cn3)C2)nnc1-c1ccccc1 (single isomer, unassigned) [Example 56.0, (3R,5S)-N-(4-(2,6-dimethoxyphenyl)-5-phenyl-4H-1,2,4-triazol-3-yl)-1-(5-fluoro-2-pyrimidinyl)-5-hydroxy-3-piperidinesulfonamide or (3S,5R)-N-(4-(2,6-dimethoxyphenyl)-5-phenyl-4H-1,2,4-triazol-3-yl)-1-(5-fluoro-2-pyrimidinyl)-5-hydroxy-3-piperidinesulfonamide] | 30 nM
7 | COc1ncnc(OC)c1-n1c(NS(=O)(=O)[C@@H](C)[C@H](C)c2ncc(C)cn2)nnc1-c1cccc(C(F)(F)F)c1 [Example 48.0] | 23 nM
8 | Cc1cnc([C@@H](O)[C@H](C)S(=O)(=O)Nc2nnc(-c3ccccc3)n2-c2c(F)cccc2F)nc1 [Example 45.0] | 34 nM
9 | COc1cccc(OC)c1-n1c(NS(=O)(=O)[C@@H](C)[C@H](C)c2ncc(C)cn2)nnc1-c1ccccc1 [Example 15.0, (2S,3R)-N-(4-(2,6-dimethoxyphenyl)-5-phenyl-4H-1,2,4-triazol-3-yl)-3-(5-methyl-2-pyrimidinyl)-2-butanesulfonamide] | 0.89 nM
10 | COc1cccc(OC)c1-n1c(NS(=O)(=O)[C@@H](C)[C@H](OC)c2ncc(C)cn2)nnc1-c1ccc(OC(F)(F)F)cc1 [Example 69.0, (1R,2S)-N-(4-(2,6-dimethoxyphenyl)-5-(4-(trifluoromethoxy)phenyl)-4H-1,2,4-triazol-3-yl)-1-methoxy-1-(5-methyl-2-pyrimidinyl)-2-propanesulfonamide] | 35 nM
11 | CO[C@H](c1ncc(Cl)cn1)[C@H](C)S(=O)(=O)Nc1nnc(-c2cccc(S(C)(=O)=O)c2)n1C1CC1 [Example 121.0, (1R,2S)-1-(5-Chloropyrimidin-2-yl)-N-(4-cyclopropyl-5-(3-(methylsulfonyl)phenyl)-4H-1,2,4-triazol-3-yl)-1-methoxypropane-2-sulfonamide] | 590 nM
12 | COc1ncnc(OC)c1-n1c(NS(=O)(=O)[C@@H](C)Cc2ncc(F)cn2)nnc1-c1ccccc1 (single isomer, unassigned) [Example 11.0, (2S)-N-(4-(4,6-dimethoxy-5-pyrimidinyl)-5-phenyl-4H-1,2,4-triazol-3-yl)-1-(5-fluoro-2-pyrimidinyl)-2-propanesulfonamide or (2R)-N-(4-(4,6-dimethoxy-5-pyrimidinyl)-5-phenyl-4H-1,2,4-triazol-3-yl)-1-(5-fluoro-2-pyrimidinyl)-2-propanesulfonamide] | 6.4 nM
13 | COc1ncnc(OC)c1-n1c(NS(=O)(=O)[C@@H](C)[C@H](C)c2cnc(C)cn2)nnc1-c1ccccc1 [Example 26.0, (2S,3R)-N-(4-(4,6-dimethoxy-5-pyrimidinyl)-5-phenyl-4H-1,2,4-triazol-3-yl)-3-(5-methyl-2-pyrazinyl)-2-butanesulfonamide] | 5.2 nM
14 | COCC1(n2c(NS(=O)(=O)[C@@H](C)[C@H](OC)c3ncc(Cl)cn3)nnc2-c2ccccc2)CC1 [Example 97.0, (1R,2S)-1-(5-Chloro-2-pyrimidinyl)-1-methoxy-N-(4-(1-(methoxymethyl)cyclopropyl)-5-phenyl-4H-1,2,4-triazol-3-yl)-2-propanesulfonamide] | 1 nM
15 | Cc1cnc([C@@H](C)[C@H](C)S(=O)(=O)Nc2nnc(-c3ccccc3)n2-c2c(F)cccc2F)nc1 [Example 40.0, (2S,3R)-N-(4-(2,6-difluorophenyl)-5-phenyl-4H-1,2,4-triazol-3-yl)-3-(5-methyl-2-pyrimidinyl)-2-butanesulfonamide] | 4.4 nM
16 | COc1ccc(OC)c(-c2nnc(NS(=O)(=O)[C@@H](C)[C@H](OC)c3ncc(C)cn3)n2-c2c(OC)cccc2OC)c1 [Example 79.0, (1R,2S)-N-(5-(2,5-dimethoxyphenyl)-4-(2,6-dimethoxyphenyl)-4H-1,2,4-triazol-3-yl)-1-methoxy-1-(5-methyl-2-pyrimidinyl)-2-propanesulfonamide] | 3.8 nM
17 | COc1ncnc(OC)c1-n1c(NS(=O)(=O)[C@H]2CCCN(c3ncc(Cl)cn3)C2)nnc1-c1ccccc1 (single isomer, unassigned) [Example 31.0, (3S)-1-(5-chloro-2-pyrimidinyl)-N-(4-(4,6-dimethoxy-5-pyrimidinyl)-5-phenyl-4H-1,2,4-triazol-3-yl)-3-piperidinesulfonamide or (3R)-1-(5-chloro-2-pyrimidinyl)-N-(4-(4,6-dimethoxy-5-pyrimidinyl)-5-phenyl-4H-1,2,4-triazol-3-yl)-3-piperidinesulfonamide] | 340 nM
18 | COc1cccc(OC)c1-n1c(NS(=O)(=O)[C@@H](C)[C@H](OC)c2ncc(C)cn2)nnc1-c1cccc(OC(F)(F)F)c1 [Example 89.0, (1R,2S)—N-(4-(2,6-Dimethoxyphenyl)-5-(3-(trifluoromethoxy)phenyl)-4H-1,2,4-triazol-3-yl)-1-methoxy-1-(5-methyl-2-pyrimidinyl)-2-propanesulfonamide] | 0.47 nM
19 | COC[C@@H](C)n1c(NS(=O)(=O)[C@@H](C)[C@H](OC)c2ncc(Cl)cn2)nnc1-c1ccccc1 [Example 124.0] | 57 nM
20 | COc1cccc(-c2nnc(NS(=O)(=O)[C@@H](C)[C@H](OC)c3ncc(C)cn3)n2-c2c(OC)ncnc2OC)c1 [Example 6.0, (1R,2S)-N-(4-(4,6-dimethoxy-5-pyrimidinyl)-5-(3-methoxyphenyl)-4H-1,2,4-triazol-3-yl)-1-methoxy-1-(5-methyl-2-pyrimidinyl)-2-propanesulfonamide] | 6.8 nM
21 | CO[C@H](c1ncc(Cl)cn1)[C@H](C)S(=O)(=O)Nc1nnc(-c2ccccc2)n1C1(C)CC1 [Example 98.0] | 3.3 nM
22 | COc1ncnc(OC)c1-n1c(NS(=O)(=O)CCc2ccc(Cl)cc2)nnc1-c1ccccc1 [Example 19.0, 2-(4-chlorophenyl)-N-(4-(4,6-dimethoxy-5-pyrimidinyl)-5-phenyl-4H-1,2,4-triazol-3-yl)ethanesulfonamide] | 40 nM
23 | Cc1cnc([C@H](OC(C)C)[C@H](C)S(=O)(=O)Nc2nnc(-c3ccccc3)n2-c2c(F)cccc2F)nc1 [Example 42.0, (1S,2S)-N-(4-(2,6-difluorophenyl)-5-phenyl-4H-1,2,4-triazol-3-yl)-1-(1-methylethoxy)-1-(5-methyl-2-pyrimidinyl)-2-propanesulfonamide] | 3.4 nM
24 | Cc1cnc([C@H](OC(C)C)[C@H](C)S(=O)(=O)Nc2nnc(-c3ccccc3)n2C2CCOCC2)nc1 [Example 63.0, (1S,2S)-1-(1-methylethoxy)-1-(5-methyl-2-pyrimidinyl)-N-(5-phenyl-4-(tetrahydro-2H-pyran-4-yl)-4H-1,2,4-triazol-3-yl)-2-propanesulfonamide] | 420 nM
25 | COc1cccc(-c2nnc(NS(=O)(=O)[C@@H](C)[C@H](OC)c3ncc(Cl)cn3)n2[C@H]2CCCOC2)c1 [Example 119.0] | 22 nM
26 | COCC1(n2c(NS(=O)(=O)[C@@H](C)[C@H](OC)c3ncc(Cl)cn3)nnc2-c2cccc3nn(C)cc23)CC1 [Example 114.0] | 53 nM
27 | Cc1cnc([C@H](OC(C)C)[C@H](C)S(=O)(=O)Nc2nnc(-c3ccccc3)n2C2(C)CC2)nc1 [Example 99.0] | 8 nM
28 | COc1cccc(OC)c1-n1c(NS(=O)(=O)[C@H]2CCCN(c3ncc(F)cn3)C2)nnc1-c1ccccc1 (single isomer, unassigned) [Example 22.0, (3S)—N-(4-(2,6-dimethoxyphenyl)-5-phenyl-4H-1,2,4-triazol-3-yl)-1-(5-fluoro-2-pyrimidinyl)-3-piperidinesulfonamide or (3R)—N-(4-(2,6-dimethoxyphenyl)-5-phenyl-4H-1,2,4-triazol-3-yl)-1-(5-fluoro-2-pyrimidinyl)-3-piperidinesulfonamide] | 170 nM
